Experimental data reported in US8022043B2, “Ceramide derivatives as modulators of immunity and autoimmunity” (Albert Einstein College of Medicine of Yeshiva University, priority 2004, dated 2011).

What was measured:
NK T hybridoma DN3A4.1-2 = assay: Upregulation of CD40L (CD154), FACS; assay type: cell-based, mouse; details: 0.5 uM glycolipid, 18 hours, RMA-S/CD1d cells
Procedure: The upregulation of CD40L by ceramide-like glycolipids reported in FIG. 11 were obtained by incubating NK T hybridoma DN3A4.1-2 with RMA-S/CD1d cells at a ratio of 2:1 in the presence of 0.5 uM of ceramide-like glycolipid for 18 hours. Cells were then resuspended and labeled with mAbs specific for CD5 and CD40L. Levels of CD40L were determined by FACS analysis of the population gated for CD5 staining.

NZB/W-F1 mice = assay: SLE in NZB/W-F1 mice; assay type: in vivo
iNKT cells = assay: In vitro cytokine modulation, murine cell assay system; assay type: cell-based
Text: The term iNKT cells, as used herein, mean the specific subset of CD1d-dependent T cells that expresses the invariant TCRα chain rearrangement consisting of Vα14-Jα18 in mice, and Vα24-Jα18 in humans. These cells are uniformly reactive to α-galactosylceramides presented by CD1d. These cells are also referred to as “Type 1” NKT cells, and the distinction between the different types of NKT cells and the nomenclature relating to this are summarized in the publication by Godfrey et al., Nat Rev Immunol. 2004 March; 4(3):231-7. Methods for determining cytokine production by iNKT cells in response to CD1d-presented glycolipids for determination of strong or weak agonist activity are described in Yu K O A, Im J S, Molano A, Dutronc Y, Illarionov P A, Forestier C, Fujiwara N, Arias I, Miyake S, Yamamura T, Chang Y-T, Besra G S, Porcelli S A, Modulation of CD1d-restricted NKT cell responses using N-acyl variants of α-galactosylceramides, Proc. Nat. Acad. Sci. (USA), 102:3383-8 (2005), see also Godfrey D I et al., Nat Rev Immunol. 2004 March; 4(3):231-7.

[1] = test system: Bulk splenocytes from C57BL/6 mice; assay: Cytokine response of splenocyte cultures (IL-4 and IFNγ ELISA); assay type: cell-based; details: 500 nM glycolipid, 48 hours
Procedure: The cytokine response reported in Table 1 and FIG. 5C was determined by the following procedure: Bulk splenocytes from C57BL/6 mice were plated at 300,000 per well in 96-well flat-bottom tissue culture plates with ceramide-like glycolipids diluted to a concentration of 500 nM in 200 microliters complete medium. After 48 h at 37° C., 150 microliters of supernatant was removed for cytokine measurements. Supernatant levels of IL-4, and IFNγ were measured by standard enzyme-linked immunosorbent assay (ELISA), using capture and biotinylated detection antibody pairs (clones 11B11/BVD6-24G2-biotin, and R4-6A2/XMG1.2-biotin, respectively, from BD Pharmingen, San Diego, Calif.). […] Standards for IL-4 and IFNγ were from Peprotech (Rocky Hill, N.J.).

C57BL/6 mice = assay: Serum IL-4 and IFNγ after a single i.p. injection; assay type: in vivo; details: 20 hours after single i.p. injection of 4.8 nanomoles
Procedure: Serum levels of L-4 and IFNγ after a single injection of DB01-1, DB03-4, or DB03-5 are shown. C57BL/6 mice (11-13 weeks old) were given a single i.p. injection of 4.8 nanomoles of the compounds or phosphate buffered saline (PBS)/vehicle control. Serum cytokine levels were measured 2 and 20 hours later by capture ELISA. Bars show means of three mice, with standard deviation. Note that DB01-1 has nearly identical structure to KRN7000 (C24 fatty acid as compared to C26) and has activity that is indistinguishable from KRN7000 in multiple bioassays. We use DB01-1 as a “KRN7000 mimic” because it has been synthesized by our group and is readily available for our studies, and KRN7000 was unavailable due to license restrictions.
A most intriguing property of KRN7000 analogues is that in some cases they may elicit immune responses that are qualitatively different from those that occur following stimulation with the parent compound. […] This selective activation of IL-4 production by NK T cells was proposed to be the basis for the enhanced therapeutic effects of OCH in the EAE model of central nervous system autoimmune disease. We have observed a similar in vivo effect on the nature of the NK T cell response using several of our ceramide-like glycolipids. […] These responses are similar to those seen for DB01-1, an analogue that is structurally almost identical to KRN7000 (C24 fatty acid instead of C26, otherwise identical) and indistinguishable in terms of its activity in our hands. […] This selective IL-4 induction is virtually identical to that reported for the OCH analogue, and thus illustrates the potential for amino substituted analogues of KRN7000 to induce qualitatively different immunomodulatory effects in vivo. The results reported in FIG. 9 were obtained by measuring serum levels of IL-4 and IFNγ after administering a single injection of […], DB03-4, or DB03-5 to C57BL/6 mice. C57BL/6 mice (11-13 weeks old) were given a single i.p. injection of 4.8 nanomoles of the ceramide-like glycolipids or PBS/vehicle control. Serum cytokine levels were measured 2 and 20 hours later by capture ELISA. Bars show means of three mice, with standard deviation.
For experiments involving in vivo treatment of mice with the ceramide-like glycolipids, the ceramide-like glycolipids were administered by i.p. or i.v. injection in 0.2 ml PBS+0.025% Tween-20, or in vehicle alone. A typical dose is about 4-5 nmoles per animal per injection. Representative references for administering an α-galactosyl ceramide to mice by i.p., i.v. or p.o. routes are S. Sharif et al., Activation of natural killer T cells by alpha-galactosylceramide treatment prevents the onset and recurrence of autoimmune Type 1 diabetes, Nat. Med., Sep. 7, 2001, (9):1057-62 and K. Miyamoto et al., A synthetic glycolipid prevents autoimmune encephalomyelitis by inducing TH2 bias of natural killer T cells, Nature. Oct. 4, 2001, 413(6855):5314.

[2] = test system: Bulk splenocytes from C57BL/6 mice; assay: Splenocyte proliferation assay (3H-thymidine incorporation); assay type: cell-based; details: Mus musculus, concentration giving 50% maximal response in proliferation of splenocyte cultures
NOD mice = details: twice weekly injection from 4 weeks of age, reduction from 75%; cited from earlier work
[3] = culture supernatant ELISA, ND = below the reliable level for detection

SMILES: CCCCCCCCCCCCCCCCCCCCCCCC(=O)N[C@@H](CO[C@@H]1OC(C)[C@@H](O)[C@H](O)C1O)[C@H](O)[C@H](O)CCCCCCCCCCCCCC (some centres unmarked) [DB03-8]
- CD40L expression (NK T hybridoma DN3A4.1-2): capable of inducing CD40L
- effect on SLE (NZB/W-F1 mice): exacerbates SLE
- agonist activity on iNKT cells (iNKT cells; in vitro): weak agonist
- in vitro activity at modulating cytokines (iNKT cells; murine cell assay system): show in vitro activity

SMILES: CCCCCCCCCCCCCCCCCCCCCCCC(=O)N[C@@H](COC1OC(CO)C(O)C(O)C1O)[C@H](O)[C@H](O)CCCCCCCCCCCCCC (some centres unmarked) [DB01-1]
- IL-4/IFNγ ratio divided by this ratio for DB01-1 (value in parentheses) [1]: 1.0
- ratio IL-4/IFNγ [1]: 0.026
- Cytokine Response IFNγ [1, 3]: 7.29 ng/mL
- Cytokine Response IL-4 [1, 3]: 0.19 ng/mL
- serum IFNγ response (C57BL/6 mice): strong IFNγ response
- EC50 [2]: 63.6 nM

SMILES: CCCCCCCCCCCCCCCCCCCCCCCCCC(=O)N[C@@H](CO[C@H]1O[C@H](CO)[C@H](O)[C@H](O)[C@H]1O)[C@H](O)[C@H](O)CCCCCCCCCCCCCC [KRN7000, (2S,3S,4R)-1-O-(α-D-galactopyranosyl)-N-hexacosanoyl-2-amino-1,3,4-octadecanetriol]
- incidence of diabetes (NOD mice): approximately 5%
